{"source": "ChEMBL document CHEMBL4765482", "about": "“Novel Sigma 1 Receptor Antagonists as Potential Therapeutics for Pain Management” (J Med Chem, 2021)", "key": {"[1]": {"test_system": "Rattus norvegicus", "assay": "Analgesic activity in Sprague-Dawley rat model of paclitaxel-induced neuropathic pain assessed as decrease in mechanical allodynia by measuring reduction in pain threshold at 20 mg/kg, ip measured at 0.5 to 1.5 hrs by Von Frey assay relative to control", "assay_type": "functional", "parameters": "scale not given: the % may be the effect or the level left", "details": "time 0.5-1.5 hrs"}, "[2]": {"assay": "Toxicity in Sprague-Dawley rat assessed as effect on motor coordination at 10 to 20 mg/kg, ip measured at 30 to 120 mins post treatment by rotarod test", "assay_type": "organism-based", "details": "in vivo, dose lower 10 mg/kg, time lower 30 min, dose upper 20 mg/kg, time upper 120 min"}, "[3]": {"biological_target": "T1, Sigma non-opioid intracellular receptor 1 (Cavia porcellus, UniProt Q60492)", "T1 sequence (Q60492 whole entry)": "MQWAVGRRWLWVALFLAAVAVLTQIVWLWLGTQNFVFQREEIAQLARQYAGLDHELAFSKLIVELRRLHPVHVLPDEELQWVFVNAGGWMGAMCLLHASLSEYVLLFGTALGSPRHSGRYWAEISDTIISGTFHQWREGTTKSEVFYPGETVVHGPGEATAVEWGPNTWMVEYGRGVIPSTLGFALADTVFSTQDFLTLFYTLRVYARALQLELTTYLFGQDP", "assay": "Displacement of [3H]-(+)-pentazocine from sigma-1 receptor in guinea pig brain membranes incubated for 1 hr by liquid scintillation counting method", "assay_type": "cell membranes, Membrane"}, "[4]": {"biological_target": "Kappa-type opioid receptor (Homo sapiens) (UniProt P41145)", "sequence (P41145 whole entry)": "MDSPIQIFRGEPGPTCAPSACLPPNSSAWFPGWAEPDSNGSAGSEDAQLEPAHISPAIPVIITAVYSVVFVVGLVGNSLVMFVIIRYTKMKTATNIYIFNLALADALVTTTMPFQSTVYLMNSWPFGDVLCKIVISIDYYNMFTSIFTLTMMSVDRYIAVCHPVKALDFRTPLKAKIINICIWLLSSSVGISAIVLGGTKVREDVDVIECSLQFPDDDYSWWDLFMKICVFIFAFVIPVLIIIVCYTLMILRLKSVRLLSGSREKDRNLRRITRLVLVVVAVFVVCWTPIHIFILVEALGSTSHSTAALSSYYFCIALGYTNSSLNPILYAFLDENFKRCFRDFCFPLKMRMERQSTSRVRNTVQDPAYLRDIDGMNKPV", "assay": "Displacement of [3H]-Diprenorphine from recombinant human full-length kappa opiod receptor expressed in human HEK293 cells at 1 uM incubated for 60 mins by scintillation counting method", "assay_type": "cell-based"}, "[5]": {"test_system": "Rattus norvegicus", "assay": "Analgesic activity in Sprague-Dawley rat model of paclitaxel-induced neuropathic pain assessed as reduction in cold hyperalgesia by measuring increase in paw withdrawal latency at 20 to 40 mg/kg, ip measured at 1 to 2 hrs post dosing by Von Frey assay relative to control", "assay_type": "functional", "parameters": "scale not given: the % may be the effect or the level left", "details": "dose 20-40 mg/kg, time 1-2 hrs"}, "[6]": {"biological_target": "T1, Sigma non-opioid intracellular receptor 1"}, "[7]": {"biological_target": "Delta-type opioid receptor (Homo sapiens) (UniProt P41143)", "sequence (P41143 whole entry)": "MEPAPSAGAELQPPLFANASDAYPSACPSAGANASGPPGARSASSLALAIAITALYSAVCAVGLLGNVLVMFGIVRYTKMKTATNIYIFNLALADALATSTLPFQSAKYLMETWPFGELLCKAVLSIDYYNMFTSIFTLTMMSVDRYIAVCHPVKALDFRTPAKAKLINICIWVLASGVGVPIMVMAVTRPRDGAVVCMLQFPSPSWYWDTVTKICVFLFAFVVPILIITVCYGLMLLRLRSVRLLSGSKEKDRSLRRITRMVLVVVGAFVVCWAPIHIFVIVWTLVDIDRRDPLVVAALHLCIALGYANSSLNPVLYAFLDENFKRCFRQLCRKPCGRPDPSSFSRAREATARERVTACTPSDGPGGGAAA", "assay": "Displacement of [3H]-Naltrindole from recombinant human full-length delta opiod receptor expressed in human HEK293 cells at 1 uM incubated for 60 mins by scintillation counting method", "assay_type": "cell-based"}, "[8]": {"test_system": "Rattus norvegicus", "assay": "Antinociceptive activity in formalin-induced Sprague-Dawley rat model of nociceptive pain assessed as decrease in time spent on licking during late phase at 20 to 40 mg/kg, ip administered 30 mins before formalin stimulation and measured at 5 mins interval for 10 to 35 mins", "assay_type": "functional, organism-based", "details": "dose 20-40 mg/kg"}, "[9]": {"test_system": "Rattus norvegicus", "assay": "Antinociceptive activity in formalin-induced Sprague-Dawley rat model of nociceptive pain assessed as decrease in time spent on licking during acute phase at 40 mg/kg, ip administered 30 mins before formalin stimulation and measured at 5 mins interval for 10 mins", "assay_type": "functional, organism-based", "details": "time 40.0 min"}, "[10]": {"assay": "Cmax in Sprague-Dawley rat plasma at 10 mg/kg, ip measured after 0.25 to 4 hrs by LC-MS/MS analysis", "assay_type": "ADME, organism-based", "parameters": "route intraperitoneal, time upper 4 hrs, time lower 0.25 hrs, dose 10 mg/kg"}, "[11]": {"assay": "Ratio of drug concentration in brain to plasma in Sprague-Dawley rat at 10 mg/kg, ip by LC-MS/MS analysis", "assay_type": "ADME, organism-based", "details": "read-out: BPR"}, "[12]": {"assay": "Intrinsic clearance in human liver microsomes at 10 uM incubated for 1 hr in presence of NADPH by LC-MS/MS analysis", "assay_type": "ADME, Microsome", "details": "read-out: CLH"}, "[13]": {"assay": "Metabolic stability in rat liver microsomes assessed as half-life at 10 uM incubated for 1 hr in presence of NADPH by LC-MS/MS analysis", "assay_type": "ADME, Microsome"}, "[14]": {"assay": "MRT (0 to infinity) in Sprague-Dawley rat plasma at 10 mg/kg, ip after 0.25 to 4 hrs by LC-MS/MS analysis", "assay_type": "ADME, organism-based", "details": "time 0.25-4 hrs"}, "[15]": {"biological_target": "Mu-type opioid receptor (Homo sapiens) (UniProt P35372)", "sequence (P35372 whole entry)": "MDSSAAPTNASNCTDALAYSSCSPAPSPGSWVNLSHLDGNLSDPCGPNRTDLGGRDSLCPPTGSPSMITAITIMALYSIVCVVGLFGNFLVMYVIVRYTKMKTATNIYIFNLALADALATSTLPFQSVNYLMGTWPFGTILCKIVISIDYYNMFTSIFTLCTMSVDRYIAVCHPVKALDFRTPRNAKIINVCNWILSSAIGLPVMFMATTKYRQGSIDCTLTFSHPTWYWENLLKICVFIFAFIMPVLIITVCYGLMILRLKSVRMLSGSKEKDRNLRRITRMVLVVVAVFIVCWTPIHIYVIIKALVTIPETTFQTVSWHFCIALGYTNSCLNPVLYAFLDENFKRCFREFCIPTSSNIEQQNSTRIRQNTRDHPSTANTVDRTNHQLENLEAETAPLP", "assay": "Displacement of [3H]-Diprenorphine from recombinant human full-length mu opiod receptor expressed in […] cells at 1 uM incubated for 60 mins by scintillation counting method", "assay_type": "cell-based", "details": "HEK293"}, "[16]": {"biological_target": "Sigma non-opioid intracellular receptor 1 (Cavia porcellus) (UniProt Q60492)", "sequence (Q60492 whole entry)": "as the sequence (Q60492 whole entry) above", "assay": "Ratio of Ki for displacement of [3H]-(+)-pentazocine from sigma-1 receptor to Ki for displacement of [3H]-(+)-pentazocine from sigma-1 receptor in guinea pig brain membranes in presence of phenytoin", "assay_type": "cell membranes", "details": "Membrane"}, "[17]": {"assay": "AUC (0 to infinity) in Sprague-Dawley rat plasma at 10 mg/kg, ip after 0.25 to 4 hrs by LC-MS/MS analysis", "assay_type": "ADME, organism-based", "parameters": "route intraperitoneal, time 0.25-4 hrs, dose 10 mg/kg"}, "[18]": {"assay": "AUC (0 to 4 hrs) in Sprague-Dawley rat plasma at 10 mg/kg, ip after 0.25 to 4 hrs by LC-MS/MS analysis", "assay_type": "ADME, organism-based", "parameters": "route intraperitoneal, dose 10 mg/kg, time upper 4 hrs, time lower 0.25 hrs"}, "[19]": {"biological_target": "Sigma intracellular receptor 2 (Homo sapiens, UniProt Q5BJF2)", "sequence (Q5BJF2 whole entry)": "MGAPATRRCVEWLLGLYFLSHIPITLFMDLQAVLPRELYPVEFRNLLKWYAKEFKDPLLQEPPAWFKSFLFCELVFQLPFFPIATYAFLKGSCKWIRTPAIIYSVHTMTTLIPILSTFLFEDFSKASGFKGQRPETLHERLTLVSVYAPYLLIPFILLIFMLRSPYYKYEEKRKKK", "assay": "Displacement of [3H]-DTG from sigma-2 receptor in human Jurkat cell membrane incubated for 1 hr by liquid scintillation counting method", "assay_type": "cell membranes"}, "[20]": {"assay": "Half life in Sprague-Dawley rat plasma at 10 mg/kg, ip measured after 0.25 to 4 hrs by LC-MS/MS analysis", "assay_type": "ADME, organism-based", "details": "time 0.25-4 hrs"}, "[21]": {"assay": "Metabolic stability in human liver microsomes assessed as half-life at 10 uM incubated for 1 hr in presence of NADPH by LC-MS/MS analysis", "assay_type": "ADME, Microsome"}, "[22]": {"assay": "Displacement of [3H]-DTG from sigma-2 receptor in guinea pig brain membrane incubated for 1 hr by liquid scintillation counting method", "assay_type": "cell membranes, Cavia porcellus"}, "[23]": {"biological_target": "hERG (KCNH2) (Homo sapiens, UniProt Q12809)", "sequence (Q12809 whole entry)": "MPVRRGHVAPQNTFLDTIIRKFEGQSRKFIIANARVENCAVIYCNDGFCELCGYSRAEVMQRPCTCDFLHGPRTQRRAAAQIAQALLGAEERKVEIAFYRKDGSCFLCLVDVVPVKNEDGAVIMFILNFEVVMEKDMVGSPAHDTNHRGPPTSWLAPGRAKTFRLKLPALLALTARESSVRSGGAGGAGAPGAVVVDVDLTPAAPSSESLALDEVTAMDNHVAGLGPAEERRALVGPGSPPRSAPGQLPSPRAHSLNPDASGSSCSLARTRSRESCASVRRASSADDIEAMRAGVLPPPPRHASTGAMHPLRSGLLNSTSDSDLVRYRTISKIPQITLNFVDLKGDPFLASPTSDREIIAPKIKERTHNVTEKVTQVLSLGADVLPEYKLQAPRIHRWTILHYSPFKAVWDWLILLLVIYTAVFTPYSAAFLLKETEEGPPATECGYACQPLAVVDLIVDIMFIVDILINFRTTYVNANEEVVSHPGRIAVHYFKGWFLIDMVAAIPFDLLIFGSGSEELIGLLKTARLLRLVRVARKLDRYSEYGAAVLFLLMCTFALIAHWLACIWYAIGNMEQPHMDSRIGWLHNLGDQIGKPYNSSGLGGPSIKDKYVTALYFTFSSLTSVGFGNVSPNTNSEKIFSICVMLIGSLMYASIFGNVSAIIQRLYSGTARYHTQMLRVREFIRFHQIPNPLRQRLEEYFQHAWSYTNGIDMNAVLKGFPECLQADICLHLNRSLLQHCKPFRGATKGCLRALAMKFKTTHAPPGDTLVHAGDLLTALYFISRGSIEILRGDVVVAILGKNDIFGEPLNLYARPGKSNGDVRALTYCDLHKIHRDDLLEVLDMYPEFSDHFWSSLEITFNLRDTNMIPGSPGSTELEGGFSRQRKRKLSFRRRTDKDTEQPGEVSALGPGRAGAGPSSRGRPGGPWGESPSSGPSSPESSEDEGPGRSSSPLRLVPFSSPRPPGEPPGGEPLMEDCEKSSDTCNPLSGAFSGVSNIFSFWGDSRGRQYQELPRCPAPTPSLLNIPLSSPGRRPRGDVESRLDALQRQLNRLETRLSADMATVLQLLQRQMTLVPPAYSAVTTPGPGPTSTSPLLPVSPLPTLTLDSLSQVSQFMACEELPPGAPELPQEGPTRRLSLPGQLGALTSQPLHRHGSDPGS", "assay": "Binding affinity to human ERG at 1 uM relative to control", "assay_type": "cell-based", "details": "HEK293 cells, read-out: Activity"}, "[24]": {"biological_target": "Sigma non-opioid intracellular receptor 1 (Homo sapiens, UniProt Q99720)", "sequence (Q99720 whole entry)": "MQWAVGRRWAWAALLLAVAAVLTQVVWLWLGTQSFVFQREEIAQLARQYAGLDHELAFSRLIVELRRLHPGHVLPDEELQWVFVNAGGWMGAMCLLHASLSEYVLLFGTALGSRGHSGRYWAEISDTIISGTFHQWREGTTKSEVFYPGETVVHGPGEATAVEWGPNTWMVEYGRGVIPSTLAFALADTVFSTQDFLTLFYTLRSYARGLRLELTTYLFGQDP", "assay": "Displacement of [3H]-pentazocine from sigma-1 receptor in human Jurkat cell membrane incubated for 2 hr by liquid scintillation counting method", "assay_type": "cell membranes"}, "[25]": {"assay": "Intrinsic clearance in rat liver microsomes at 10 uM incubated for 1 hr in presence of NADPH by LC-MS/MS analysis", "assay_type": "ADME, Microsome", "details": "read-out: CLH"}, "[26]": {"assay": "Tmax in Sprague-Dawley rat plasma at 10 mg/kg, ip measured after 0.25 to 4 hrs by LC-MS/MS analysis", "assay_type": "ADME, organism-based", "details": "time 0.25-4 hrs"}}, "note": "Active and inactive are the calls of the source.", "data": [{"smiles": "Cn1nc(CN2CCCC2)nc1-c1ccc(C(C)(C)C)cc1", "values": [{"measurement": "Activity", "setting": "[1]", "result": 180, "unit": "%"}, {"measurement": "Activity", "setting": "[2]", "result": "Non-Toxic"}, {"measurement": "Ki", "setting": "[3]", "result": 2.7, "unit": "nM"}, {"measurement": "Activity", "setting": "[4]", "result": "inactive"}, {"measurement": "Activity", "setting": "[5]", "result": 120, "unit": "%"}, {"measurement": "Ki", "setting": "[6]", "result": 3.4, "unit": "nM"}, {"measurement": "Activity", "setting": "[7]", "result": "inactive"}, {"measurement": "Activity", "setting": "[8]", "result": "Active"}, {"measurement": "Activity", "setting": "[9]", "result": "Active"}, {"measurement": "Cmax", "setting": "[10]", "result": 932, "unit": "ng/mL"}, {"measurement": "Kp", "setting": "[11]", "result": 12}, {"measurement": "microsomal CLint at 10 µM", "setting": "[12]", "result": 5.8, "unit": "µL/min/mg"}, {"measurement": "half-life at 10 µM", "setting": "[13]", "result": 9.6, "unit": "min"}, {"measurement": "MRT inf", "setting": "[14]", "result": 43.8, "unit": "min"}, {"measurement": "Activity", "setting": "[15]", "result": "inactive"}, {"measurement": "Ratio Ki", "setting": "[16]", "result": 0.8}, {"measurement": "AUC(0-inf)", "setting": "[17]", "result": 635, "unit": "ng·h/mL"}, {"measurement": "AUC(0-t)", "setting": "[18]", "result": 633, "unit": "ng·h/mL"}, {"measurement": "Ki", "setting": "[19]", "result": "> 1000", "unit": "nM"}, {"measurement": "half-life", "setting": "[20]", "result": 33.6, "unit": "min"}, {"measurement": "half-life at 10 µM", "setting": "[21]", "result": 120, "unit": "min"}, {"measurement": "Ki", "setting": "[22]", "result": 474, "unit": "nM"}, {"measurement": "activity at 1 µM", "setting": "[23]", "result": 8.4, "unit": "%"}, {"measurement": "Ki", "setting": "[24]", "result": 7.5, "unit": "nM"}, {"measurement": "microsomal CLint at 10 µM", "setting": "[25]", "result": 72, "unit": "µL/min/mg"}, {"measurement": "Tmax", "setting": "[26]", "result": 15, "unit": "min"}]}]}
